In patent publication US20230346735A1, “Nutritional Composition Comprising Carnitine and Method for Treating or Preventing an Infection in a Mammal” (priority 2020, published 2023):
Marks after values point to notes of the source that are not given here.

Key:
TMPRSS2 [1] = assay: Human study, serum ELISA, TMPRSS2; format: in vivo; conditions: 2 g daily, 5 weeks, 48 hours after exercise challenge, versus placebo
Protocol: (§1) A human study was run with a total of 80 healthy male and female subjects ranging from 21 to 65 years of age, who were active (i.e. 30 minutes per day of moderate activity, 3 days per week) are randomized into two groups. […] Seventy-three subjects completed the trial and biomarker data were analyzed from the sera of the 73 completers. Sera were collected for analysis of C-Reactive Protein (CRP), ACE 1, ACE 2, TMPRSS 2, the Tumor Necrosis Factor alpha (TNF-alpha), and Furin at baseline in the beginning of the trial, at week 5 and 48 hr after an exercise challenge as described (Clinicaltrials.gov NCT04420377). The exercise challenge serves as surrogate to the inflammation stimulus.
(§2) To obtain human sera, venous blood was extracted by venipuncture of the antecubital vein using a 21-gauge syringe and collected into a 10 mL EDTA vacutainer tube (BD Vacutainer®, Becton, Dickinson and Company, Franklin Lakes, NJ) by a certified phlebotomist. […] Human ACE-1, ACE-2, TMPRSS2, Furin, CRP and TNF-alpha protein levels were assessed using commercially available ELISA kits, according the manufacturer recommendations, ACE-1 (R&D systems Inc., Minneapolis, MN, USA), ACE-2 (RayBiotech inc., Peachtree Corners, GA), TMPRSS2 (Novus Biologicals, Littleton, CO), CRP (R&D Systems Inc., Minneapolis, MN), TNF-alpha (Novus Biologicals, Littleton, CO), and Furin (Sigma Aldrich, St. Louis, MO). […]

ACE-1 = ACE-1 mRNA expression in Calu-3, RT real-time PCR; format: cell-based, human; conditions: Calu-3, 50 to 1,000 uM, 24 hr pre-treatment
Furin = Furin mRNA expression in Calu-3, RT real-time PCR; format: cell-based, human; conditions: Calu-3, 50 to 1,000 uM, 24 hr pre-treatment
SARS-CoV-2 = assay: microbe, parasite or virus in culture; format: cell-based
TMPRSS2 [2] = assay: TMPRSS2 mRNA expression in Calu-3, RT real-time PCR; format: cell-based, human; conditions: 24 hr
Protocol: (§3) To quantify the human gene expression, Calu-3 seeded in a 12-well plate (220,000 cells) were stimulated with 100 uM, 500 uM and 1000 uM Carnitine alone for 24 h. RNA was extracted using TRIzol (Qiagen) as per standard protocol and total RNA was reverse transcribed using SuperScript II RT (Invitrogen). Expression levels of ACE-2 and TMPRSS2 were evaluated by SYBR real-time PCR using gene-specific primers as previously reported (Ma et al., Eye 2020;34:1212). GAPDH was used as an internal normalizer. […] Fold change in expression relative to that in untreated cells was determined using the standard ddCt method.

catalase = assay: Antioxidant capacity: catalase in exercised rats; format: in vivo, rat; conditions: 6 weeks
Protocol: (§4) Fifty-six (56) Male Wistar rats that were 8-week old were obtained. The rats were reared at the temperature of 22 ± 2° C., the humidity of 55 ± 5%, and with a 12-hrs light-12-hrs dark cycle. All procedures involving rats were conducted in strict compliance with the relevant laws, the Animal Welfare Act, Public Health Services Policy, and guidelines established by the Institutional Animal Care and Use Committee of the Institute of the contracted University which completed the study.
(§5) After a week of the adaptation period, the rats were divided into eight equal groups containing seven rats each. The initial body weights of the rats were similar in all the groups (214.53 grams ± 4.67; P > 0.05).
(§6) Groups 1 and 2 were not subjected to an exercise routine. Groups 3-8 were subjected to an exercise regimen consisting of a week training period with an incremental exercise capacity described below. After the week training period the exercise regimen followed was each rat in Groups 3-8 were subjected to 6 weeks of running at 25 m/min during 45 min […]. […] These correspond to 0, 250, 500, 1000, 2000 and 4000 mg per day for humans, respectively.
(§7) The exercised rats were subjected to treadmill exercise on a motorized rodent treadmill (Commat Limited, Ankara, Turkey). The treadmill contained a stimulus grid at the back end of the treadmill giving an electric shock when the animal placed its paw on the grid. […] To eliminate the diurnal variations, all exercise tests were applied during the same time of the day. The week of training period was provided as pre-training practice for the animals to get familiar with the treadmill equipment and handling. In doing so, the rats in the exercise training groups were accustomed by treadmill exercise over 5 days such that: (i) 1st day, 10 m/min for 10 min, (ii) 2nd day, 20 m/min for 10 min, (iii) 3rd day, 25 m/min for 10 min, (iv) 4th day, 25 m/min for 20 min and (v) 5th day, 25 m/min for 30 min. After the training period, the rats in treadmill exercise groups ran on the treadmill 25 m/min for 45 min/ per day and five days per week for 6 weeks according to the protocol described by Sahin et al. Capsaicinoids Improve the Consequences of Physical Activity. Toxicol Rep. 2018;5:598-607, which is hereby incorporated by reference.
(§8) The exercise regimen was used to induce an inflammation and oxidative stress conditions. […] The results of malondialdehyde, superoxide dismutase, catalase, and glutathione peroxidase for each rat group are shown in TABLE 2.

glutathione peroxidase = assay: Antioxidant capacity: glutathione peroxidase in exercised rats; format: in vivo, rat; conditions: 6 weeks
Protocol: as §4, §5, §6, §7, §8

ACE-2 = ACE-2 mRNA expression in Calu-3, RT real-time PCR; format: cell-based, human; conditions: Calu-3, 50 to 1,000 uM, 24 hr pre-treatment
Protocol: as §3

C-Reactive Protein (CRP) = assay: Human study, serum ELISA, CRP; format: in vivo
Protocol: as §1, §2

superoxide dismutase = assay: Antioxidant capacity: superoxide dismutase in exercised rats; format: in vivo, rat; conditions: 6 weeks
Protocol: as §4, §5, §6, §7, §8

[3] = Car200: 200 mg/kg oral gavage, no exercise
[4] = Ex+Car25: exercise, 25 mg/kg oral gavage
[5] = Ex+Car50: exercise, 50 mg/kg oral gavage
[6] = Ex+Car100: exercise, 100 mg/kg oral gavage
[7] = Ex+Car200: exercise, 200 mg/kg oral gavage
[8] = Ex+Car400: exercise, 400 mg/kg oral gavage

C[N+](C)(C)C[C@H](O)CC(=O)[O-] [L-carnitine]
TMPRSS2 serum levels (TMPRSS2 [1]): significant decrease
ACE-1 mRNA levels (ACE-1): didn’t not change
Furin expression levels (Furin): did not show any effect
virus growth (plaque assay) (SARS-CoV-2): successful at inhibiting virus growth
IC50 (SARS-CoV-2; Severe acute respiratory syndrome coronavirus 2, Calu-3, read-out: IC50, inhibition of Calu-3 infection): 139 µM
TMPRSS2 mRNA decrease (TMPRSS2 [2]; Calu-3, 500 uM): at least 75%
TMPRSS2 mRNA increase (TMPRSS2 [2]; Calu-3, between 50-100 uM): 1.5-4 fold
CAT (catalase; [3]): 147.19±2.01^de U/mg protein
CAT (catalase; [4]): 144.55±3.21^de U/mg protein
CAT (catalase; [5]): 152.72±2.50^cd U/mg protein
CAT (catalase; [6]): 162.11±1.97^bc U/mg protein
CAT (catalase; [7]): 170.77±2.57^b U/mg protein
CAT (catalase; [8]): 186.10±2.50^a U/mg protein
GSHPx (glutathione peroxidase; [3]): 48.74±1.11^d U/mg protein
GSHPx (glutathione peroxidase; [4]): 49.75±1.08^d U/mg protein
GSHPx (glutathione peroxidase; [5]): 55.91±0.85^c U/mg protein
GSHPx (glutathione peroxidase; [6]): 59.57±0.68^bc U/mg protein
GSHPx (glutathione peroxidase; [7]): 62.58+1.03^b U/mg protein
GSHPx (glutathione peroxidase; [8]): 69.06±1.53^a U/mg protein
ACE-2 mRNA levels (ACE-2): statistically significant downregulation
plasma CRP concentration, mean diff Group A versus Group B (C-Reactive Protein (CRP); at 48 hr-Post, p<0.005): -0.55 mg/L
serum CRP levels (C-Reactive Protein (CRP); from baseline after 5 weeks of supplementation, compared to placebo group): significantly lower
SOD (superoxide dismutase; [3]): 95.87±2.47^cd U/mg protein
SOD (superoxide dismutase; [4]): 96.49±0.78^cd U/mg protein
SOD (superoxide dismutase; [5]): 102.89±2.69^bc U/mg protein
SOD (superoxide dismutase; [6]): 109.68±2.49^ab U/mg protein
SOD (superoxide dismutase; [7]): 114.56±2.70^a U/mg protein
SOD (superoxide dismutase; [8]): 120.16±3.58^a U/mg protein
